Assay results taken from PubChem BioAssay AID179 (DTP/NCI, 2004).
Activity calls are given as the source filed them.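 Rule for the calls: active = compounds giving half or more protection of infected cells from virus-caused growth loss, again on retest; inactive = the rest.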

System: CEM cells HIV-1 protection, formazan growth assay
Assay: NCI AIDS Antiviral Assay
Settings: for IC50: measured here: growth of uninfected CEM cells
Summary of the method: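 Human CEM cells, uninfected and HIV-1-infected, exposed to five drug concentrations; growth measured by soluble formazan assay and scored as percent protection from infection, with protecting compounds retested.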

SMILES: CO[C@@H]1C=C[C@@]23c4cc5c(cc4C(=O)O[C@H]2CN(C)[C@H]3C1)OCO5
- EC50: > 380 µM
- IC50: > 380 µM

SMILES: NC(=O)c1[nH]cnc1/N=N/SCC(N)C(=O)O (configuration not stated)
- EC50: > 200 µM
- IC50: 0.794 µM

SMILES: O=C1[C@@H]2C(c3ccc(Br)cc3)=NO[C@@H]2C(=O)N1c1ccc(Cc2ccc(N3C(=O)[C@H]4C(c5ccc(Br)cc5)=NO[C@H]4C3=O)cc2)cc1
- EC50: > 9.55 µM
- IC50: > 9.55 µM

SMILES: CC1(C)OC(=O)C(=Cc2ccccc2Br)C(=O)O1
- EC50: > 417 µM
- IC50: 1.29 µM

SMILES: CCCCNc1nc2nc[nH]c2c(=O)[nH]1
- EC50: > 200 µM
- IC50: > 200 µM

SMILES: NC(=O)c1ncn2c1NC(=O)CC2
- outcome: inactive

SMILES: CCOC(=O)C(C)S(=O)(=O)O (configuration not stated)
- EC50: > 200 µM
- IC50: > 200 µM

SMILES: O=C1c2ccccc2C(=O)N1/N=C\c1ccc(Br)cc1
- EC50: > 21.9 µM
- IC50: > 21.9 µM

SMILES: O=C1CCSSCCC(=O)NCCN1
- EC50: > 22.4 µM
- IC50: > 22.4 µM

SMILES: CCCCNC(=S)Nn1c(-c2ccccc2)nc2ccccc2c1=O
- EC50: > 20.4 µM
- IC50: > 20.4 µM

SMILES: CC(=O)N/C(=C\C=C\CC=O)SC12CC3CC(CC(C3)C1)C2
- EC50: > 200 µM
- IC50: 12.6 µM

SMILES: COC(=O)C(CNC(=O)/C=C/c1ccc(OC(C)=O)c(OC(C)=O)c1)NC(=O)/C=C/c1ccc(OC(C)=O)c(OC(C)=O)c1 (configuration not stated)
- EC50: > 200 µM
- IC50: 36.3 µM

SMILES: COc1nc2sc3c(c2c(=O)n1CCCSSCCCn1c(OC)nc2sc4c(c2c1=O)CCCC4)CCCC3
- EC50: > 100 µM
- IC50: > 100 µM

SMILES: CCOC(=O)c1nnsc1NN=C(C)C
- EC50: > 200 µM
- IC50: > 200 µM

SMILES: CN(c1ccccc1Cl)S(=O)(=O)c1ccc([N+](=O)[O-])cc1
- EC50: > 200 µM
- IC50: > 200 µM

SMILES: Cn1nc(-c2ccc(Cl)c(Cl)c2)nc2c(=O)n(C)c(=O)nc1-2
- EC50: > 200 µM
- IC50: 3.8 µM

SMILES: O=c1oc2ccccc2n1CCCn1c(=O)oc2ccccc21
- EC50: > 200 µM
- IC50: > 200 µM

SMILES: O=C(Cc1ccccc1)NCCCN(CCCCN(CCCNC(=O)Cc1ccccc1)C(=O)OCc1ccccc1)C(=O)OCc1ccccc1
- outcome: inactive

SMILES: O=c1oc2ccccc2cc1F
- EC50: > 302 µM
- IC50: > 302 µM

SMILES: CCOP(=O)(OCC)C(Cc1ccc(OC)c(OC)c1)N=C(c1ccccc1)c1ccccc1 (configuration not stated)
- EC50: > 200 µM
- IC50: 29.5 µM

SMILES: COc1ccc(-n2[nH]c(=O)n(C)c2=O)cc1
- EC50: > 200 µM
- IC50: > 200 µM

SMILES: C=C1CC(C)(COc2ccc3c(C)cc(=O)oc3c2)OC1=O (configuration not stated)
- EC50: > 20 µM
- IC50: 0.501 µM

SMILES: COc1ccc2nc3cc(Cl)ccc3c(NCCNCCCNC(=O)c3cc(-c4ccccc4)nc4ccccc34)c2c1
- EC50: > 20 µM
- IC50: 1.12 µM

SMILES: O=c1cc2ccc(Cl)cc2n[nH]1
- EC50: > 85.1 µM
- IC50: > 85.1 µM

SMILES: O=C(N1CC2(CN(C(=O)C(F)(F)F)CC3(C1)OCCO3)OCCO2)C(F)(F)F
- EC50: > 200 µM
- IC50: > 200 µM

SMILES: CC(C(=O)ON1C(=O)CCC1=O)c1ccc(C(=O)c2ccccc2)s1 (configuration not stated)
- EC50: > 200 µM
- IC50: > 200 µM

SMILES: CCCCNC(=S)/N=C/c1c(O)cc(C)oc1=O
- EC50: > 200 µM
- IC50: > 200 µM

SMILES: CN1c2ccccc2SC2C(c3ccccc3)=NOC21 (configuration not stated)
- EC50: > 200 µM
- IC50: 45.7 µM

SMILES: O=C1c2cccnc2S(=O)N1Cc1ccccc1 (configuration not stated)
- EC50: 105 µM
- IC50: > 200 µM

SMILES: CN(C)c1c([O-])c(=[N+](C)C)c1=O
- outcome: inactive

SMILES: Cc1ccc(N(C(=[As]c2ccccc2)C(C)(C)C)[Si](C)(C)C)cc1 (configuration not stated)
- EC50: > 18.2 µM
- IC50: > 18.2 µM

SMILES: Cc1cc(C)nc(NS(=O)(=O)c2ccc(NNC(=O)c3cccc4c(=O)c5ccccc5[nH]c34)cc2)n1
- EC50: > 200 µM
- IC50: 31.6 µM

SMILES: [O-]c1c[n+](C23CCC(c4ccccc42)c2ccccc23)no1
- EC50: > 200 µM
- IC50: 97.7 µM

SMILES: COC(=O)N/N=C(\c1ccccc1)c1ccc(OC)cc1
- EC50: > 200 µM
- IC50: 112 µM

SMILES: N=C(N)CCNC(=O)C1CCC(N)=N1 (configuration not stated)
- EC50: > 851 µM
- IC50: 17 µM

SMILES: COc1ccc(-c2cc(C(=O)Nc3cc(C(F)(F)F)cc(C(F)(F)F)c3)c3ccccc3n2)cc1
- EC50: > 14.8 µM
- IC50: > 14.8 µM

SMILES: COC(=O)C1=C(C)NC(CF)=C(C(=O)OC)C1c1cccc2c(=O)c3ccccc3oc12 (configuration not stated)
- EC50: > 200 µM
- IC50: 3.47 µM

SMILES: CCOC(=O)Cn1c(=O)[nH]c(=O)c2[nH]cnc21
- EC50: > 1050 µM
- IC50: > 1050 µM

SMILES: C#C[C@]1(O)CC[C@H]2[C@@H]3C[C@@H](O)[C@]45CC4CC[C@]5(C)[C@H]3CC[C@@]21C (some centres not stated)
- EC50: > 200 µM
- IC50: 72.4 µM

SMILES: CCOC(=O)C1=CNc2ccccc2N=C1N
- EC50: > 200 µM
- IC50: 34.7 µM
